Measured values: ChEMBL document CHEMBL1143211, “Inhibitors of proteases and amide hydrolases that employ an alpha-ketoheterocycle as a key enabling functionality” (Bioorg Med Chem, 2008)
Where a SMILES comes first, the peptide text is derived from it. [ ]: non-standard residue; d: D form. The star is where a group is joined. Nle = CCCC[C@H](N)C(=O)O; Bz = O=C(c1ccccc1)*

Columns and labels:
[1] = Oral bioavailability in rat; format: ADME, organism-based; details: in vivo
[2] = Selectivity for human alpha-thrombin over bovine trypsin
[3] = Inhibition of bovine trypsin; parameters: species or system Bos taurus
Prothrombin = Prothrombin (Homo sapiens, UniProt P00734); assay: Inhibition of human alpha-thrombin
Trypsin = Trypsin (Homo sapiens, UniProt P07477+P07478+P35030); assay: Inhibition of human trypsin; format: protein assay
Homo sapiens = species: Homo sapiens; assay: Selectivity for human alpha-thrombin over human trypsin
Granzyme B = Granzyme B (Homo sapiens, UniProt P10144); assay: Inhibition of granzyme B
[4] = Inhibition of post-glutamyl peptide hydrolase-like activity of human 20S proteasome
[5] = Inhibition of trypsin-like activity of human 20S proteasome
Hamster = assay: Efficacy in po dosed hamster acute lung injury model; format: functional; details: Cricetinae
Coagulation factor X = Coagulation factor X (Homo sapiens, UniProt P00742); assay: Inhibition of human factor 10a
Plasma kallikrein = Plasma kallikrein (Homo sapiens, UniProt P03952); assay: Inhibition of kallikrein
[6] = target: T1, Fatty-acid amide hydrolase 1 (Homo sapiens, UniProt O00519); assay: Inhibition of human recombinant FAAH
T1 sequence (O00519 whole entry): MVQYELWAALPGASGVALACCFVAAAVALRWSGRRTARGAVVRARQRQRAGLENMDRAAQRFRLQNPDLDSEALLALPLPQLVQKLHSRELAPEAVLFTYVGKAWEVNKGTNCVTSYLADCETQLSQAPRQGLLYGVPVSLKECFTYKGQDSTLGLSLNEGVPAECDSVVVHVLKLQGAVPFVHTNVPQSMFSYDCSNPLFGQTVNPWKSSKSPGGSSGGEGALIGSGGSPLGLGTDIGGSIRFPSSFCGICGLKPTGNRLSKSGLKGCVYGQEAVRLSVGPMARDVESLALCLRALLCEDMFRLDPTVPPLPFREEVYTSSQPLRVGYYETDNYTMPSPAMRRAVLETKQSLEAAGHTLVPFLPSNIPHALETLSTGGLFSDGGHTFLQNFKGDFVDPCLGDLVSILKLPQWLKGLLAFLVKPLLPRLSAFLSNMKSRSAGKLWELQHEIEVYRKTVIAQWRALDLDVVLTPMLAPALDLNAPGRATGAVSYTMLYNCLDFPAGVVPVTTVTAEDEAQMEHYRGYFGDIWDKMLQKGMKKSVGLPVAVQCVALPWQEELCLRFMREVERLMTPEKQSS

[7] = target: T2, Fatty-acid amide hydrolase 1 (Rattus norvegicus, UniProt P97612)
T2 sequence (P97612 whole entry): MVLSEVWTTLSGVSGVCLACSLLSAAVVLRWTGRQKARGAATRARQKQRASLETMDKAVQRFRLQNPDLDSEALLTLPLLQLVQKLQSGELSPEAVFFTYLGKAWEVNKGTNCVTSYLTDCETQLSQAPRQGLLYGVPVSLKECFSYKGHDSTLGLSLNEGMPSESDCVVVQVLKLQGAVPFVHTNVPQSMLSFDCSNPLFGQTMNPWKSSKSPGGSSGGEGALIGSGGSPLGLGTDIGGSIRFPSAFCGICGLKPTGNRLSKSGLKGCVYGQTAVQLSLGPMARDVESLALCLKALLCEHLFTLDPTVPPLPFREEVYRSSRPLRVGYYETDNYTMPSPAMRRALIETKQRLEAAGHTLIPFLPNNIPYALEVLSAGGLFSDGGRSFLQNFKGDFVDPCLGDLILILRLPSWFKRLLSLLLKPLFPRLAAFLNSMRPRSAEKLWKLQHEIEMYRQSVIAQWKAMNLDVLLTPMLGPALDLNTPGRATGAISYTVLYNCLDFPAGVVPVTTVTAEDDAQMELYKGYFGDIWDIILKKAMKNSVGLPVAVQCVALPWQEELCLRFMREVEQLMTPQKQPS

[8] = Inhibition of dengue virus NS3 protease
[9] = Inhibition of human rhinovirus 14 3C protease; parameters: species or system rhinovirus B14
rhinovirus B14 = assay: Antiviral activity against human rhinovirus 14; format: functional, organism-based; details: Rhinovirus B
[10] = Selectivity for rat FAAH over triacylglycerol hydrolase
[11] = Inhibition of human beta-tryptase
Cathepsin K = target: T3, Cathepsin K (Homo sapiens, UniProt P43235); assay: Inhibition of human recombinant cathepsin K
T3 sequence (P43235 whole entry): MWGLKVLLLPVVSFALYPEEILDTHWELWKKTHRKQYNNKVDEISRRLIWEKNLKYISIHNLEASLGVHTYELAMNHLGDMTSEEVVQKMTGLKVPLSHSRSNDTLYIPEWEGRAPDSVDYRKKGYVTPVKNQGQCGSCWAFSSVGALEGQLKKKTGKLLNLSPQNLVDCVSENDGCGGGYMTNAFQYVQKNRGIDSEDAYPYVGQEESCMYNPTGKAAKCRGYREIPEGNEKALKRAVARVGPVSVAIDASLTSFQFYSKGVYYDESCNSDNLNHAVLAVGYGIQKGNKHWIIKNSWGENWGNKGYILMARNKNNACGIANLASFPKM

Procathepsin L = Procathepsin L (Homo sapiens, UniProt P07711); assay: Inhibition of human recombinant cathepsin L
Cathepsin B = Cathepsin B (Homo sapiens, UniProt P07858); assay: Inhibition of human liver cathepsin B
Cathepsin S = Cathepsin S (Homo sapiens, UniProt P25774); assay: Inhibition of human recombinant cathepsin S
Cathepsin S, sequence (P25774 whole entry): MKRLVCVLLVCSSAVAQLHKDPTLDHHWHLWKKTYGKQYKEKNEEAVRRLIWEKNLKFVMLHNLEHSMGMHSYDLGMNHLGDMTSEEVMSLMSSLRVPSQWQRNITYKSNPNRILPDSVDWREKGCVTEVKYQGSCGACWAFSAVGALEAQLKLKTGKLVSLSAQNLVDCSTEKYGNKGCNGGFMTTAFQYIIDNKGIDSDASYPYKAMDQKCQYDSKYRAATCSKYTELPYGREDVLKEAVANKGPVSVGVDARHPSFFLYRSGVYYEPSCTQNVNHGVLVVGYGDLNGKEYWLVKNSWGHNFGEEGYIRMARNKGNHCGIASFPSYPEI

Granzyme B, sequence (P10144 whole entry): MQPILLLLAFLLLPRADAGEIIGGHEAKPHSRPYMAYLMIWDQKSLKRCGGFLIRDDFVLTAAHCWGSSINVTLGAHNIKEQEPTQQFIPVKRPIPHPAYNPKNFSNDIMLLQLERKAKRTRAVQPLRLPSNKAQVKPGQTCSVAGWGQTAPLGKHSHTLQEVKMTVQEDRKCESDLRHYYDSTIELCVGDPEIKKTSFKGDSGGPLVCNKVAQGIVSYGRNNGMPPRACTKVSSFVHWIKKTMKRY
Procathepsin L, sequence (P07711 whole entry): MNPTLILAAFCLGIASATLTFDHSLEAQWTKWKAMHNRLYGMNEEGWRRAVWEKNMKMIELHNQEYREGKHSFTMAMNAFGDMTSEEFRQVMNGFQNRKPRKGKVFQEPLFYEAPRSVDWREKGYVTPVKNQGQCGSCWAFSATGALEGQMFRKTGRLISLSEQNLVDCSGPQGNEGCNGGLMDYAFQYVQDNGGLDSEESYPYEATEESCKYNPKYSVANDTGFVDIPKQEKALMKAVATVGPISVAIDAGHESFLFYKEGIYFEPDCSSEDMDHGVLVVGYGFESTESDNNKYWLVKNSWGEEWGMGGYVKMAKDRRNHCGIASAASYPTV
Coagulation factor X, sequence (P00742 41-179 limits assumed): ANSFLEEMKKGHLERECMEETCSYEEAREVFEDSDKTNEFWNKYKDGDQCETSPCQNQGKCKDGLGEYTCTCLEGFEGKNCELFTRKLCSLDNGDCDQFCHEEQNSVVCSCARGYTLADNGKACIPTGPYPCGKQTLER
Coagulation factor X, sequence (P00742 235-488 limits assumed): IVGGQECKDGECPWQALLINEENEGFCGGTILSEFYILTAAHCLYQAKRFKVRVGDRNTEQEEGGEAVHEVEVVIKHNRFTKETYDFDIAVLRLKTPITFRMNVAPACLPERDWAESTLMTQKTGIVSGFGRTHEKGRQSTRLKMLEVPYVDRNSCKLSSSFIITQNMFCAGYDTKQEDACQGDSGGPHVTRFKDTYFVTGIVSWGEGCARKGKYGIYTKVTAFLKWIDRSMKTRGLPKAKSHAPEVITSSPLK
Plasma kallikrein, sequence (P03952 20-390 limits assumed): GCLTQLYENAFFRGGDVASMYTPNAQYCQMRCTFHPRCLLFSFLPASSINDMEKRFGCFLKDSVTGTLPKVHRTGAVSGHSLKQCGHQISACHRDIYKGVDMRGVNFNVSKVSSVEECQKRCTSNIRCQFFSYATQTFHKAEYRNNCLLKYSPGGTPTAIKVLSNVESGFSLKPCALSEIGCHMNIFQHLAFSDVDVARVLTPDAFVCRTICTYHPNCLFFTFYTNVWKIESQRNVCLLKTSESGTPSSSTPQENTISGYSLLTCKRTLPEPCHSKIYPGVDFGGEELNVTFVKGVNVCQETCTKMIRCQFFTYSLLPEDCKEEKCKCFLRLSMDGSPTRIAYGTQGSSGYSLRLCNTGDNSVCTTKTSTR
Plasma kallikrein, sequence (P03952 391-638 limits assumed): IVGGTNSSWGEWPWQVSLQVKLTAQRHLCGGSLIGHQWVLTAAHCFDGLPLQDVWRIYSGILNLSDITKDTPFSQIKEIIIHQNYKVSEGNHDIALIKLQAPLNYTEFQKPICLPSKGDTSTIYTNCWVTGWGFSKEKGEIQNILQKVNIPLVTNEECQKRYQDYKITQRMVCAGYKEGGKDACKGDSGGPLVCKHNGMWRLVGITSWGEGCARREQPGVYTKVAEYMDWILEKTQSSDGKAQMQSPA

NCCCC[C@H](NC(=O)[C@@H]1CCCN1C(=O)[C@H](N)CC1CCCCC1)C(=O)c1nccs1
bioavailability [1]: 23%

CN[C@H](Cc1ccccc1)C(=O)N1CCC[C@H]1C(=O)N[C@@H](CCCN=C(N)N)C(=O)c1nc2ccccc2o1
Ratio Ki [2]: 30
Ki [3]: 13 nM

N=C(N)N1CCC[C@@H](C[C@H](NC(=O)CN2C(=O)CN(CCCc3ccccc3)C(=O)[C@H]2Cc2ccccc2Cl)C(=O)c2nccs2)C1
Ki (Prothrombin): 1.2 nM
IC50 (Trypsin): 9700 nM
Ratio Ki (Homo sapiens): 500

CC[C@H](C)[C@H](NC(C)=O)C(=O)N[C@H]1CCc2cccc3c2N(C1=O)[C@H](C(=O)N[C@@H](CC(=O)O)C(=O)c1nnc(-c2ccccc2)o1)C3
Ki (Granzyme B): 7 nM

Cc1ccc(S(=O)(=O)N[C@@H](CC(=O)NCC(C)(C)C)C(=O)N[C@](C)(CO)C(=O)N[C@@H](CC(C)C)C(=O)c2nnc(-c3ccccc3)o2)cc1
Ki [4]: > 900000 nM
Ki [5]: > 900000 nM

CC[C@H](C)[C@H](NC(C)=O)C(=O)N[C@H]1CCc2cccc3c2N(C1=O)[C@H](C(=O)N[C@@H](CC(=O)O)C(=O)c1nc2ccccc2s1)C3
Ki (Granzyme B): 85 nM

Cc1cccc(Cc2nnc(C(=O)[C@@H](NC(=O)Cn3c(-c4ccc(F)cc4)ncc(N)c3=O)C(C)C)o2)c1
ED50 (Hamster): 13 mg/kg

N=C(N)NCCC[C@H](NC(=O)CNC(=O)[C@@H](CCCNC(=N)N)NS(=O)(=O)CCc1ccccc1)C(=O)c1nc2ccccc2s1
IC50 (Coagulation factor X): 2 nM
IC50 (Plasma kallikrein): 29 nM

N#Cc1cnc(C(=O)CCc2ccc(-c3ccccc3)cc2)o1
Ki [6]: 0.26 nM
Ki [7]: 0.2 nM

CCCC[C@H](NC(=O)c1ccccc1)C(=O)N[C@@H](CCCCN)C(=O)N[C@@H](CCCNC(=N)N)C(=O)N[C@@H](CCCNC(=N)N)C(=O)c1nc2ccccc2o1
Ki [8]: 83000 nM

CCCC[C@H](NC(=O)c1ccccc1)C(=O)N[C@@H](CCCCN)C(=O)N[C@@H](CCCNC(=N)N)C(=O)N[C@@H](CCCNC(=N)N)C(=O)c1nccs1
Ki [8]: 43000 nM

Cc1ccc(S(=O)(=O)N[C@@H](CC(=O)NCC(C)(C)C)C(=O)N[C@@H](C)C(=O)N[C@@H](CC(C)C)C(=O)c2nnc(-c3ccc(N(C)C)cc3)o2)cc1
Ki [4]: > 300000 nM
Ki [5]: 290000 nM

CC(C)C[C@H](NC(=O)OCc1ccccc1)C(=O)N[C@@H](Cc1ccccc1)C(=O)N[C@@H](C[C@H]1CCNC1=O)C(=O)c1cc2ccccc2s1
Ki [9]: 4700 nM
EC50 (rhinovirus B14): > 10000 nM

CC(C)C[C@H](NC(=O)OCc1ccccc1)C(=O)N[C@@H](Cc1ccccc1)C(=O)N[C@@H](C[C@H]1CCNC1=O)C(=O)c1nc2ccccc2s1
Ki [9]: 65 nM
EC50 (rhinovirus B14): 3200 nM

COC(=O)N[C@H](C(=O)N1CCC[C@H]1C(=O)N[C@H](C(=O)c1nn(-c2ccc(N(C)C)cc2)c(=O)o1)C(C)C)C(C)C
ED50 (Hamster): 7.5 mg/kg

CC(C)C[C@H](NC(=O)OCc1ccccc1)C(=O)N[C@@H](Cc1ccccc1)C(=O)N[C@@H](C[C@H]1CCNC1=O)C(=O)c1nccs1
Ki [9]: 700 nM
EC50 (rhinovirus B14): 7900 nM

CCCCCCCC/C=C\CCCCCCCC(=O)c1nc2ncccc2o1
Ki [6]: 13 nM
Selectivity ratio [10]: 30

N=C(N)NCCC[C@H](NC(=O)[C@@H]1CCN2CC[C@@](N)(Cc3ccccc3)C(=O)N12)C(=O)c1nc2ccccc2s1
Ki (Prothrombin): 0.65 nM
bioavailability [1]: 25%

CCCC[C@H](NC(=O)c1ccccc1)C(=O)N[C@@H](CCCCN)C(=O)N[C@@H](CCCNC(=N)N)C(=O)N[C@H](C=O)CCCNC(=N)N (Bz-[Nle]KRR-aldehyde)
Ki [8]: 5800 nM

CC[C@H](C)[C@H](NC(C)=O)C(=O)N[C@H]1CCc2cccc3c2N(C1=O)[C@H](C(=O)N[C@H](C=O)CC(=O)O)C3
Ki (Granzyme B): 8 nM

NCCCC[C@H](NC(=O)[C@@H]1CCCN1C(=O)[C@@H](CC1CCCCC1)NCC(=O)O)C(=O)c1ncco1
bioavailability [1]: < 5%

CC(C)[C@H](NC(=O)Cn1c(-c2ccc(F)cc2)ncc(N)c1=O)C(=O)c1nnc(C(C)(C)c2ccccc2)o1
ED50 (Hamster): 10 mg/kg

C=CCOC(=O)N[C@@H](CC1CCNC1)C(=O)c1noc(Cc2ccc(C(=O)NC3Cc4ccccc4C3)cc2)n1 (some centres not stated)
Ki [11]: 25 nM
Selectivity ratio (Homo sapiens): > 50

NCCCC[C@H](NC(=O)c1cc(F)cc(F)c1)C(=O)c1noc(Cc2ccc(C(=O)NCCc3cccc(Cl)c3)cc2)n1
Ki [11]: 1.5 nM
Selectivity ratio (Homo sapiens): 275

CCCC[C@H](NC(=O)c1ccccc1)C(=O)N[C@@H](CCCCN)C(=O)N[C@@H](CCCNC(=N)N)C(=O)N[C@H](CCCNC(=N)N)B(O)O
Ki [8]: 43 nM

CN[C@H](Cc1ccccc1)C(=O)N1CCC[C@H]1C(=O)N[C@@H](CCCN=C(N)N)C(=O)c1nc2c(s1)CCCC2
Ratio Ki [2]: 15
Ki [3]: 4.4 nM

CCCCCCCC/C=C\CCCCCCCC(=O)c1nc2ccccc2o1
Ki [6]: 73 nM

N=C(N)NCCC[C@H](NC(=O)[C@@H]1CC[C@@H]2CC[C@@](N)(Cc3ccccc3)C(=O)N21)C(=O)c1nc2ccccc2s1
Ki (Prothrombin): 0.85 nM
bioavailability [1]: 2%

CCCC[C@H](NC(=O)OCc1ccccc1)C(=O)c1nnc(-c2ccco2)o1
Ki (Cathepsin K): 3000 nM
Ki (Procathepsin L): 28000 nM
Ki (Cathepsin B): 34000 nM
Ki (Cathepsin S): 2000 nM

N=C(N)NCCC[C@H](NC(=O)CNC(=O)[C@@H](CCCNC(=N)N)NS(=O)(=O)CCc1ccccc1)C(=O)c1nccs1
IC50 (Coagulation factor X): 1 nM
IC50 (Plasma kallikrein): 120 nM

CC(C)C[C@H](NC(=O)OCc1ccccc1)C(=O)N[C@@H](Cc1ccccc1)C(=O)N[C@@H](C[C@H]1CCNC1=O)C(=O)c1ccccn1
Ki [9]: 170 nM
EC50 (rhinovirus B14): 4000 nM

Cc1cc(C(=O)N[C@H](C(=O)N[C@@H](Cc2ccc(F)cc2)C(=O)N[C@@H](C[C@@H]2CCNC2=O)C(=O)c2nc3ccccc3s2)C(C)C)no1
Ki [9]: 4.5 nM
EC50 (rhinovirus B14): 340 nM

CN[C@H](Cc1ccccc1)C(=O)N1CCC[C@H]1C(=O)N[C@@H](CCCN=C(N)N)C(=O)c1nccs1
Ratio Ki [2]: 10
Ki [3]: 1.2 nM

CCCC[C@H](NC(=O)C(=O)[C@H](CC(C)C)NC(=O)OCc1ccccc1)C(=O)c1nnc(-c2ccco2)o1
Ki (Cathepsin K): < 0.25 nM
Ki (Procathepsin L): 1 nM
Ki (Cathepsin B): 2 nM
Ki (Cathepsin S): < 0.25 nM

CN[C@H](Cc1ccccc1)C(=O)N1CCC[C@H]1C(=O)N[C@@H](CCCNC(=N)N)C(=O)c1cc2ccccc2s1
Ratio Ki [2]: 12000
Ki [3]: 1300 nM
